Experimental data taken from patent US10959430B2, “Compositions and methods for repelling coleopterans” (ISCA TECHNOLOGIES, INC., priority 2015, dated 2021).

How the values were obtained:
[1] = tested on: CBB (coffee berry borer, Hypothenemus hampei); experiment: Dislodging of CBB from coffee berries in a sealed petri dish; assay type: in vivo; details: both male and female CBBs
Description: Our testing involved application of approximately 0.2 g of SPLAT Verb in approximately a 6-inch petri dish. (SPLAT Verb is loaded with 10% verbenone by weight.) This area would correspond to 0.0000045ac of land; therefore, our field application rate would be approximately 44 kg of SPLAT Verb (4,400 g of verbenone) per acre. Coffee berries, commonly used to rear CBB, were placed in the petri dish. The 0.2 g of SPLAT Verb was introduced into the sealed petri dish. We then went on to measure the times when CBB dislodged or exited the berry. The number dislodged is a summation of the total dislodged at that point in time. Our data (as shown in Table 3) verifies that CBB exited their preferred host and, after dislodging, maintained high activity levels without re-entering the berries.

CBB = details: dosage and verbenone type not given in the study; cited from earlier work

| Structure (SMILES) | effect of exposure on male and female CBBs in the coffee berry [1] | response of CBB to path containing verbenone (CBB) |
| --- | --- | --- |
| CC1=CC(=O)[C@H]2C[C@@H]1C2(C)C [(1S)-(−)-Verbenone] | dislodge from the coffee berry |  |
| CC1=CC(=O)[C@@H]2C[C@H]1C2(C)C [verbenone] |  | unattractive |
